The structures appear in SMILES notation. Where only a bound is given, the exact number is not on record here.

Data set [1] in a line: Permeability on Caco-2 cells monolayers. It is filed as in vitro ADME. The conditions noted are these: human, with Elacridar 10 µM (PgP inhibitor), Papp A>B with PgP inhibitor Elacridar, 10 μM compound, read-out: Passive Permeability. As to the method:
Even more advantageously, the compounds of formula (I) of the present invention are also endowed with a good permeability profile that, in its turn, can ensure a suitable bioavailability for an oral administration. The permeability was assessed in human Caco 2 cell line, an in vitro model that mimic human gastrointestinal barrier and so useful to predic oral absorption.
The permeability of the compounds of the present invention was evaluated performing the assay on Caco-2 cells monolayers (human colon adenocarcinoma immortalized cell) by measuring the transport of compound (absorption and secretion) in both directions: apical to basolateral direction (A>B) and basolateral to apical (B>A) with and without PgP inhibitor (Elacridar).
The cells, purched from ReadyCell in 96 well format (Cod. KRECE-CCR50), were cultured by the supplier for 21 day on transwell supports in DMEM 1 g/L glucose culture medium supplemented with Fetal Bovin Sierum (10%), Glutamine 200 mM (1%) and Penicillin 10000 U/ml-10 mg/ml Streptomycin (1%).
On day 21 of colture, cell monolayers integrity was verified by measuring the trans-epithelial electric resistance (TEER) using the EVOM equipment (Endohm, WPI, Germany) and studying the apparent permeability (Papp) of reference compounds (Sulpiride and Metoprolol). Furthermore, as a control, the Talinolol 10 uM (Pgp efflux substrate) with and without Elacridar in both directions was used.
The sample solution was prepared dissolving test compound in DMSO at the concentration of 10 mM and then diluted in the Assay Buffer (Hank's Balance Salt Solution) warmed at 37° C. before use, to give the 10 μM Compound working solution with and without 10 μM Elacridar. These working solutions were added to donor compartment (apical for A>B direction and basolateral for B>A direction) and Assay Buffer (Hank's Balance Salt Solution) to the receiver compartment (basolateral for A>B direction and apical for B>A direction). The plate was incubated at 37° C. for 120 min, all incubation were conducted in triplicates. At the end of incubation, samples from donor and receiver compartments were collected for HPLC-MS/MS analyses.
The permeability coefficients (Papp) in both directions: apical to basolateral (A>B) and basolateral to apical (B>A) with and without PgP inhibitor (Elacridar) was calculated in nm/sec, using the following equation:
[formula] • where: • Cr=measured concentration in the receiver well at the time t (expressed as IS ratio) • Vr=volume of the receiver well (ml) • t=time (sec) • A=membrane surface area (cm^2) • C0=initial donor concentration • Passive Papp is considered Papp A>B with PgP inhibitor Elacridar.
A general note: Passage across Caco-2 layers is used to estimate intestinal permeability.

In a further data set the target is BSEP (Homo sapiens (Human), UniProt O95342). Briefly: BSEP inhibition: biliary clearance of Taurocolic Acid in sandwich-cultured human hepatocytes. The following applies: 50 μM test compound, 10 μM TCA, human hepatocytes sandwich configuration; for inhibition at 10 min, 50 μM: sandwich-cultured cryopreserved human hepatocytes, probe Taurocolic Acid (TCA). In kind it is in vitro ADME. As to the method:
BSEP inhibition was evaluated using human hepatocytes cultured between two layer of collagen (sandwich configuration). In this culture condition, hepatocytes express relevant transporters including BSEP and retain the bile canalicular structure. An inhibition of the biliary clearance of Taurocolic Acid (TCA), a known BSEP substrate, was used to assess BSEP interaction.
BSEP inhibition was evaluated using cryopreserved human hepatocytes (Plateable Cryopreserved Human Hepatocytes, BIOIVT) cultured for 5 day between two layer of collagen (sandwich configuration). In this culture condition, hepatocytes express relevant transporters including BSEP and retain the bile canalicular structure.
On day 5 of culture, hepatic cells are ready for the assay and the biliary clearance of Taurocolic Acid (TCA), a known BSEP substrate, can be estimated in presence and in absence of compound of interest.
The sample solution was prepared dissolving test compound and TCA in DMSO and then diluted in the Assay Buffer: Hank's Balance Salt Solution (HBSS+) warmed at 37° C. before use, to give the 10 μM TCA working solution with and without 50 μM of test compound. Hepatocytes were incubated for 10 minutes with these working solutions allowing TCA to be excreted into bile. At the end of incubation, the working solution was aspirated, and the content of the bile was collected through the addition of HBSS Modified without Ca2+/Mg2+(HBSS−). The presence of Ca2+ in the buffer is required to maintain the integrity of the tight junctions, the diffusional barrier between the canalicular lumen and extracellular space. Instead, incubation of cells in Ca2+-free buffer disrupts the tight junctions and opens the bile canalicular structures, allowing the bile content to be released and collect for HPLC-MS/MS analysis.
The in vitro biliary clearance of TCA incubated with and without test compounds is calculated according to the following formula:
where • Acc. Bile=(TCA amount in HBSS (−) buffer samples (pmol/mg protein)*Volume of each samples (mL))/Protein content per well (mg) • AUC=Incubation time (min)*T0 Concentration. T0 concentration is the initial TCA concentration in the medium.
The inhibition of BSEP was calculated as percentage of inhibition of TCA biliary clearance in presence of compound of interest, according to the following formula: BSEP inhibition %=100−(TCA ClBil with test compound*100)
TCA ClBil without test compound.

Data set [2] has as its target human recombinant LPA1 expressed in CHO cells (Homo sapiens (Human), UniProt Q92633). Briefly: LPA1 antagonist FLIPR calcium assay in CHO-hLPA1 cells. The following applies: range of activity; CHO-hLPA1, LPA EC80, Ca2+ mobilization; read-out: LPA1 IC50. In kind it is cell-based. As to the method: The effectiveness of compounds of the present invention as LPA1 antagonists can be determined at the human recombinant LPA1 expressed in CHO cells, using a FLIPR assay in 384 well format.
CHO-hLPA1 cell lines are cultured in a humidified incubator at 5% CO2 in DMEM/F-12 (1:1) MIXTURE with 2 mM Glutamax, supplemented with 10% of Foetal Bovine Serum, 1 mM Sodium Pyruvate, 11 mM Hepes and 1× Penicillin/Streptomycin. […] Serial dilutions (1:3 or 1:4, 11 points CRC) of compounds are performed in 100% DMSO at 200× the final concentration. […] The final concentration of DMSO in the assay will be 0.5% in each well. Medium is removed by aspiration and cells are then incubated with 30 μl of a loading solution containing 5 μM of the cytoplasmic Ca2+ indicator Cal-520 AM in Assay Buffer containing 2.5 mM probenecid for 30 min at 37° C. incubator (cell loading). The loaded cell plates are transferred into the FLIPR instrument and calcium responses are monitored during the on-line addition protocols. For testing of compounds, after the cell loading, 10 μl/well of 4× antagonists' solution was added onto the cells. After 30 min pre-incubation (at 37° C.), 10 μl/well of 5× concentrated LPA EC80 was added and Ca2+ mobilization responses was followed during the on-line addition protocol. Intracellular peak fluorescence values subtracted by baseline fluorescence are exported and analysed to determine IC50 values, respectively. The calcium response is expressed as percentage of the maximal inhibition of the EC80 agonist response.
The raw data (peak height expressed as relative fluorescence units) are normalized and transformed into “percent of inhibition”. Curve fitting and pIC50 (−LogIC50) estimations are carried out using a four-parameter logistic model using XLfit Software.

Chain of BSEP (O95342 whole entry): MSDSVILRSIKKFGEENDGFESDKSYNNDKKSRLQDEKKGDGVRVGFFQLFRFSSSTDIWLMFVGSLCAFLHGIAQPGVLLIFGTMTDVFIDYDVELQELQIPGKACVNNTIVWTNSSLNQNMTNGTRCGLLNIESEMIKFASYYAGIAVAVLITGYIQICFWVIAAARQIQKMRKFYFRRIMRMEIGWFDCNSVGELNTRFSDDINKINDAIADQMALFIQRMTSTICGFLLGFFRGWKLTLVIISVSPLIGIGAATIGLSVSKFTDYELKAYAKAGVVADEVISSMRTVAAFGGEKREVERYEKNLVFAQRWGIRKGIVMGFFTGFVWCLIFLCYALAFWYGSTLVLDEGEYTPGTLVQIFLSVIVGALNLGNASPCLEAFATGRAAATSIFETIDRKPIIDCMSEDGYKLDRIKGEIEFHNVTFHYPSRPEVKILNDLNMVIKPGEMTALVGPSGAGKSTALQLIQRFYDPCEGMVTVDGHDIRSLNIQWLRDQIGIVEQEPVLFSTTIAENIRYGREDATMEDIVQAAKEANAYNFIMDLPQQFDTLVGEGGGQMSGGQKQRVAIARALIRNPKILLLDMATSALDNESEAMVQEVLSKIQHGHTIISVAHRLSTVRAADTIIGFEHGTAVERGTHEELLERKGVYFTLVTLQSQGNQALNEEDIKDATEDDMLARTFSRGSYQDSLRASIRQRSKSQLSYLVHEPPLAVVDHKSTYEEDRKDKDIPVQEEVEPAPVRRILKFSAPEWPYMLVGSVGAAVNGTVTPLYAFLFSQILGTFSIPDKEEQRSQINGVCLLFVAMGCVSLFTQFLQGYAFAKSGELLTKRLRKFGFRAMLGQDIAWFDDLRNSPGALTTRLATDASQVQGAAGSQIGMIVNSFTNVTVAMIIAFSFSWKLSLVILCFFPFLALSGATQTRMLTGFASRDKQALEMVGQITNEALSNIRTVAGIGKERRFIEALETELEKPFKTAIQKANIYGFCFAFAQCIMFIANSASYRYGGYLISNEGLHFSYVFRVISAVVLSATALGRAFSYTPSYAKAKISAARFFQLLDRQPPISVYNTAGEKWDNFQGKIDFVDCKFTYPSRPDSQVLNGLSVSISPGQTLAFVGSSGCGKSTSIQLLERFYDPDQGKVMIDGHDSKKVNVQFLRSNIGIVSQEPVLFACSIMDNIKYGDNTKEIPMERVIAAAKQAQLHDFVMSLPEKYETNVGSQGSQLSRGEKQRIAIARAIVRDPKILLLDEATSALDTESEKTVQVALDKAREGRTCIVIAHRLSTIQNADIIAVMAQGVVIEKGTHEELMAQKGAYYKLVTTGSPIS
Chain of human recombinant LPA1 expressed in CHO cells (Q92633 whole entry): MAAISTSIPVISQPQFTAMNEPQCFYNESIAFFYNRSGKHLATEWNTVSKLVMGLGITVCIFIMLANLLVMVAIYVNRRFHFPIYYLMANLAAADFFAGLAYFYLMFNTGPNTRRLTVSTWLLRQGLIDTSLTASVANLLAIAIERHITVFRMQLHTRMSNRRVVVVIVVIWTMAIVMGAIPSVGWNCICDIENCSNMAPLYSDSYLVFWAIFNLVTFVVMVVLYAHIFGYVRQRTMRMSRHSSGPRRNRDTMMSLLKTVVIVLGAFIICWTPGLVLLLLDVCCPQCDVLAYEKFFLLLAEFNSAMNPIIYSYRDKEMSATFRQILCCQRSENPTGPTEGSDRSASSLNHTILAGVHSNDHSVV

Regarding `Cc1nc(-c2snc(C)c2NC(=O)O[C@H](C)c2ccccc2Cl)ccc1NC(=O)[C@H]1CCCC[C@@H]1C(=O)O` [Example 42, (1S,2S)-2-((6-(4-((((R)-1-(2-chlorophenyl)ethoxy)carbonyl)amino)-3-methylisothiazol-5-yl)-2-methylpyridin-3-yl)carbamoyl)cyclohexane-1-carboxylic acid], in data set [1], the Papp at 120 min, 10 µM is at least 1.5 ×10⁻⁶ cm/s.

What is called inhibition is the share of the control response that was lost under treatment. The low end stands for a response near the control, the high end for a response far below the control. Usually IC50 stands for the concentration that inhibits the measured activity by half. Take `CCn1nnc(-c2ccc(NC(=O)[C@H]3CCCC[C@@H]3C(=O)O)c(C)n2)c1NC(=O)O[C@H](C)c1ccccc1Cl` [Example 48, (1S,2S)-2-((6-(5-((((R)-1-(2-chlorophenyl)ethoxy)carbonyl)amino)-1-ethyl-1H-1,2,3-triazol-4-yl)-2-methylpyridin-3-yl)carbamoyl)cyclohexane-1-carboxylic acid]: the inhibition at 10 min, 50 μM against BSEP was at most 50%. Also, in data set [2], the IC50 was below 50 nM.

On to `C[C@@H](OC(=O)Nc1c(-c2ccc(NC(=O)[C@H]3CCCC[C@@H]3C(=O)O)cc2)nnn1C)c1ccccc1Cl` [Example 23, (1S,2S)-2-((4-(5-((((R)-1-(2-chlorophenyl)ethoxy)carbonyl)amino)-1-methyl-1H-1,2,3-triazol-4-yl)phenyl)carbamoyl)cyclohexane-1-carboxylic acid], for which the inhibition at 10 min, 50 μM on BSEP was at most 50%. Besides, the IC50 in data set [2] is below 50 nM.

On BSEP, `Cc1nc(-c2nnn(C)c2NC(=O)O[C@H](C)c2ccccc2Cl)ccc1NC(=O)[C@H]1CCCC[C@@H]1C(=O)O` [Example 3, (1S,2S)-2-((6-(5-((((R)-1-(2-chlorophenyl)ethoxy)carbonyl)amino)-1-methyl-1H-1,2,3-triazol-4-yl)-2-methylpyridin-3-yl)carbamoyl)cyclohexane-1-carboxylic acid] gave an inhibition at 10 min, 50 μM of at most 50%. The IC50 in data set [2] is below 50 nM.

With `CCC[C@@H](C)OC(=O)Nc1c(-c2ccc(NC(=O)[C@H]3CCCC[C@@H]3C(=O)O)c(C)n2)nnn1C` [Example 52, (1S,2S)-2-((2-methyl-6-(1-methyl-5-(((((R)-pentan-2-yl)oxy)carbonyl)amino)-1H-1,2,3-triazol-4-yl)pyridin-3-yl)carbamoyl)cyclohexane-1-carboxylic acid], at BSEP, the inhibition at 10 min, 50 μM was at most 50%. Moreover, the IC50 in data set [2] was 50 to 250 nM.

As to `Cc1noc(-c2ccc(NC(=O)[C@H]3CCCC[C@@H]3C(=O)O)cn2)c1NC(=O)O[C@H](C)c1cccnc1Cl` [Example 29, (1S,2S)-2-((6-(4-((((R)-1-(2-chloropyridin-3-yl)ethoxy)carbonyl)amino)-3-methylisoxazol-5-yl)pyridin-3-yl)carbamoyl)cyclohexane-1-carboxylic acid], the inhibition at 10 min, 50 μM against BSEP is at most 50%. Moreover, the IC50 in data set [2] lay in the range of 50 to 250 nM.

Compound `Cc1noc(-c2ccc(NC(=O)[C@H]3CCCC[C@@H]3C(=O)O)cn2)c1NC(=O)OC(C)c1cccnc1F` (single isomer, unassigned) [Example 18] displayed an inhibition at 10 min, 50 μM on BSEP of at most 50%. Besides, the IC50 in data set [2] was in the range of 50 to 250 nM.

On to `C[C@@H](OC(=O)Nc1ccsc1-c1ccc(NC(=O)C2CCCCC2C(=O)O)cc1)c1ccccc1Cl` (single isomer, unassigned) [Example 10], for which the “BSEP Inhibition at 50 μM” value on BSEP is recorded as at most 50%. Also, the IC50 in data set [2] was below 50 nM.

Compound `Cc1noc(-c2ccc(NC(=O)[C@H]3CCCC[C@@H]3C(=O)O)cn2)c1NC(=O)O[C@H](C)c1ccccc1` [Example 41, (1S,2S)-2-((6-(3-methyl-4-((((R)-1-phenylethoxy)carbonyl)amino)isoxazol-5-yl)pyridin-3-yl)carbamoyl)cyclohexane-1-carboxylic acid] came in with an inhibition at 10 min, 50 μM against BSEP of at most 50%. Moreover, in data set [2], the IC50 was below 50 nM.

`Cc1nc(-c2cnn(C)c2NC(=O)O[C@H](C)C2CCCC2)ccc1NC(=O)[C@H]1CCCC[C@@H]1C(=O)O` [Example 51, (1S,2S)-2-((6-(5-((((R)-1-cyclopentylethoxy)carbonyl)amino)-1-methyl-1H-pyrazol-4-yl)-2-methylpyridin-3-yl)carbamoyl)cyclohexane-1-carboxylic acid] came in with an inhibition at 10 min, 50 μM against BSEP of at most 50%. Further, in data set [2], the IC50 fell in the range of 250 to 600 nM.

`C[C@@H](OC(=O)Nc1c(-c2ccc(NC(=O)[C@H]3CCCC[C@@H]3C(=O)O)c(F)n2)nnn1C)c1ccccc1Cl` [Example 53, (1S,2S)-2-((6-(5-((((R)-1-(2-chlorophenyl)ethoxy)carbonyl)amino)-1-methyl-1H-1,2,3-triazol-4-yl)-2-fluoropyridin-3-yl)carbamoyl)cyclohexane-1-carboxylic acid]: the inhibition at 10 min, 50 μM against BSEP was at most 50%. In data set [2], the IC50 was below 50 nM.

Compound `Cc1noc(-c2ccc(N(C)C(=O)[C@H]3CCCC[C@@H]3C(=O)O)cn2)c1NC(=O)O[C@H](C)c1cccnc1Cl` [Example 30, (1S,2S)-2-((6-(4-((((R)-1-(2-chloropyridin-3-yl)ethoxy)carbonyl)amino)-3-methylisoxazol-5-yl)pyridin-3-yl)(methyl)carbamoyl)cyclohexane-1-carboxylic acid] displayed an inhibition at 10 min, 50 μM at BSEP of at most 50%. Moreover, the IC50 in data set [2] fell in the range of 250 to 600 nM.

`Cc1nc(-c2nnn(C)c2NC(=O)O[C@H](C)c2ccccc2F)ccc1NC(=O)[C@H]1CCCC[C@@H]1C(=O)O` [Example 47, (1S,2S)-2-((6-(5-((((R)-1-(2-fluorophenyl)ethoxy)carbonyl)amino)-1-methyl-1H-1,2,3-triazol-4-yl)-2-methylpyridin-3-yl)carbamoyl)cyclohexane-1-carboxylic acid] displayed an inhibition at 10 min, 50 μM on BSEP of at most 50%. Also, the half-inhibitory concentration (IC50) in data set [2] was below 50 nM.

The values above are taken from US12454530B2, “Amido cyclohexane acid derivatives as LPA receptor inhibitors” (CHIESI FARMACEUTICI S.P.A., priority 2020, dated 2025).
